According to patent US8633179B2, “Synergistic interaction of NOTCH-1 inhibitors with glucocorticoids” (priority 2007, dated 2014):
Read-outs that look alike come from different tables or passages of the source.

What was measured:
TALL1 cells = assay: Cell viability assay; assay type: cell-based, human
Description: (§1) FIG. 1. […] (a-c). […] (e) Percentage of apoptotic cells (annexinV positive/PI negative) in CUTLL1 (72 hours), KOPTK1 (48 hours) and TALL1 cells (72 hours) treated with DMSO (control), CompE (100 nM), dexamethasone (1 μM) and dexamethasone (1 μM) plus CompE (100 nM). […] Data in (a-f) are means±standard deviation (s.d.) of triplicate experiments. Statistical significance was assessed with Student's t-test.
(§2) Proliferation and cell size assays. Cell growth ratios were determined by a colorimetric assay using the Cell Proliferation Kit I (MU) (Roche) in cell lines treated with different antileukemic drugs in the presence or absence of CompE (100 nM). The range of concentrations used in these experiments was: dexamethasone (10^−10 to […]), etoposide (10^−10 to 10^−4 M), methotrexate (10^−10 to 10^−4 M), L-Asparaginase (10^−8 to 10^−2 g/l) and vincristine (10^−12 to 10^−6 M).

KOPTK1 cells = assay: Cell viability assay; assay type: cell-based, human
Description: as §1, §2

PARP cleavage = assay: Western blot analysis of PARP cleavage in CUTLL1 cells; assay type: cell-based, human
Description: as §1
Western blot analysis. Antibodies against glucocorticoid receptor (E-20, Santa Cruz Biotechnology), BIM (Cell Signaling Technologies); BMF (BD Bioscience) and α-actin (C-11, Santa Cruz Biotechnology) were used in immunoblot assays following manufacturer instructions.

CUTLL1 cells = assay: Cell viability (MTT/colorimetric proliferation) assay; assay type: cell-based, human; conditions: for effect of γ-secretase inhibition on the apoptotic response triggered by the drug: CUTLL1, 100 nM CompE or vehicle, increasing drug concentrations
Description: FIG. 1. GSIs reverse glucocorticoid resistance in T-ALL cells. (a-c). […] Statistical significance was assessed with Student's t-test.
FIG. 7. Analysis of the effects of GSI treatment in chemotherapy response. Cell viability analysis in the CUTLL1 cells treated with 100 nM CompE or vehicle only in presence of increasing concentrations of etoposide, methotrexate, L-asparaginase and vincristine. Cell viability was analyzed by an MTT assay and cytotoxicity data was represented as percentage of viable cells compared with non-treated controls. Data are means±s.d. of triplicate experiments.
Proliferation and cell size assays.

NOTCH1 signaling = NOTCH1 signaling in CUTLL1 cells; assay type: cell-based, human; conditions: CUTLL1, CompE 72 hours
Klf4 = Klf4 expression in small intestine of treated mice; assay type: in vivo
Description: KLF4 regulation by NOTCH signaling in the gut. (a,b) Immunohistochemistry analysis of Klf4 expression in small intestine of mice treated with dexamethasone, DBZ or the combination of dexamethasone plus DBZ for 5 days. Scale bars represent 100 μm. (c) Real-time PCR analysis of Klf4 transcript levels in small intestine of mice treated with dexamethasone, DBZ or the combination of dexamethasone plus DBZ for 5 and 10 days. Gapdh levels were used as a reference control. Data are means±s.d. of three animals per group.
Quantitative real-time PCR. […] Total RNA from mouse tissues was extracted using Trizol reagent (Invitrogen). cDNA was generated with the ThermoScript RT-PCR system (Invitrogen) and analyzed by quantitative real-time PCR using SYBR Green RT-PCR Core Reagents kit and the 7300 Real-Time PCR System (Applied Biosystems). Relative expression levels were normalized with GAPDH expression used as a reference control.
Mouse toxicity model. To analyze the effects of GSI cotreatment with dexamethasone in healthy (non-leukemia-bearing) mice, we treated C57/Bl6 female animals (3 mice per group) daily with vehicle (DMSO), dexamethasone (15 mg/kg), DBZ (10 μmol/kg) and dexamethasone (15 mg/kg) plus DBZ (10 μmol/kg) by intraperitoneal injection for 5 and 10 days. […]

[1] = Pharmacokinetic analysis of DBZ in mouse plasma; assay type: in vivo; conditions: DBZ 2 μmol/kg tail vein; mice pre-treated with dexamethasone 15 mg/kg for 5 days vs vehicle
Description: Pharmacokinetic and drug metabolism studies. […] The concentration of DBZ in mouse plasma was determined using a standard curve (analyte peak area vs. concentration) generated with calibration standard pools.

[2] = system: CUTLL1 cells expressing luciferase
Description: Leukemia xenograft model. Before intravenous xenograft transplantation, recipient animals were irradiated with a total x-ray dose of 300 cGy. Two million CUTLL1 cells expressing luciferase were injected via the tail vein. After a 3-week window for tumor engraftment, mice with homogeneous tumor burdens were segregated into treatment groups (8 animals per group) and treated daily with vehicle (DMSO), dexamethasone (15 mg/kg), DBZ (10 μmol/kg) or dexamethasone (15 mg/kg) plus DBZ (10 μmol/kg) by intraperitoneal injection for 14 days. Disease progression/response was evaluated weekly using bioimaging as described above by integrating the photonic flux (photons per second) through a region around each mouse. Animals were followed up for up to 10 weeks. At the end of the observation period, single cell suspensions from the spleen of surviving animals were analyzed for the presence of leukemic cells by flow cytometry after staining with human anti-CD45-FITC (BD Biosciences).

[3] = DBZ metabolism by liver microsomes in vitro; assay type: in vitro ADME, mouse; conditions: in the presence of dexamethasone vs vehicle, 37° C.
Description: To analyze the effects of dexamethasone in the hepatic metabolism of DBZ, mouse liver microsomes (Xenotech) were incubated with DBZ or dexamethasone plus DBZ at 37° C. and DBZ concentrations were analyzed by LC/MS/MS mass spectrometry in samples taken at serial timepoints using a standard curve prepared in incubation buffer with heat inactivated liver microsomes.

[4] = mouse, in vivo
CUTLL1 T-ALL xenografts = assay: Subcutaneous xenograft model with in vivo bioimaging; design: species or system NOD/SCID mice; conditions: 4 days of daily i.p. treatment; dexamethasone 15 mg/kg, DBZ 10 μmol/kg
Description: Subcutaneous xenograft model and in vivo imaging. […] For subcutaneous xenograft experiments, 2.5×10^6 T-ALL cells embedded in matrigel (BD Biosciences) were injected in the flank. After 1 week, mice were segregated into treatment groups (6 animals per group) and treated daily with vehicle (DMSO), dexamethasone (15 mg/kg), DBZ (10 μmol/kg) or dexamethasone (15 mg/kg) plus DBZ (10 μmol/kg) by intraperitoneal injection. For imaging studies, mice were anesthetized by isoflurane inhalation and injected with D-luciferin at 50 mg/Kg (Xenogen) intraperitoneally. Photonic emission was imaged with the In Vivo Imaging System (IVIS, Xenogen) with a collection time of 1 minute. Tumor bioluminescence was quantified by integrating the photonic flux (photons per second) through a region encircling each tumor as determined by the LIVING IMAGES software package (Xenogen).

[5] = Mouse toxicity model (histology, immunohistochemistry, flow cytometry); conditions: 5 days of treatment

In the case of `C[C@H](NC(=O)Cc1cc(F)cc(F)c1)C(=O)N[C@H]1N=C(c2ccccc2)c2ccccc2N(C)C1=O` [CompE], the “cell response to CompE treatment alone” value (TALL1 cells) is reported as “G1 cell cycle arrest”, the “cell response to CompE treatment alone” value (KOPTK1 cells) is reported as “G1 cell cycle arrest” and the “PARP cleavage (Western blot)” value (PARP cleavage; CUTLL1) is reported as “no significant increase in PARP cleavage”. For the same molecule, the “cell response to CompE alone (cell cycle, apoptosis)” value (CUTLL1 cells; CUTLL1, 72 hours) was “modest cytostatic response characterized by G1 cell cycle arrest with little or no apoptosis” and the NOTCH1 signaling (NOTCH1 signaling) was “effectively blocks NOTCH1 signaling”.

In the case of `C[C@H](NC(=O)Cc1cc(F)cc(F)c1)C(=O)NC1C(=O)N(C)c2ccccc2-c2ccccc21` (stereo partly drawn) [DBZ, (2S)-2-[2-(3,5-difluorophenyl)-acetylamino]-N-(5-methyl-6-oxo-6,7-dihydro-5H-dibenzo[b,d]azepin-7-yl)-propionamide], the “Klf4 expression by RT-PCR” value (Klf4; 5 and 10 days) is reported as “gradual increase of Klf4 expression”, the “KLF4 expression by immunohistochemistry” value (Klf4; 5 days) is reported as “marked increased in KLF4 staining” and the “clearance of DBZ in vivo” value [1] is reported as “reduced the clearance of DBZ”. For the same molecule, the “toxicity in leukemia-bearing mice (mortality, weight loss)” value ([2]; daily i.p. for 14 days) was “accelerated mortality associated with weight loss due to GSI toxicity”, the survival ([2]; end of the observation period (10 weeks), vs. controls) was “inferior outcome” and the “DBZ metabolism by liver microsomes” value [3] was “decrease in DBZ metabolism”. For the same molecule, the “histopathology of the gut after 5 days” value [4] was “moderate secretory metaplasia with increased number of goblet cells”, the “intestinal proliferation (Ki67 staining)” value [4] was “marked reduction in proliferation” and the “spleen histology / cellularity” value [4] was “disappearance of the marginal zone in the white pulp”. For the same molecule, the “thymus histology / cellularity” value [4] was “thymic atrophy with loss of the lymphoid cells from the cortex” and the “tumor growth / tumor burden by bioimaging” value (CUTLL1 T-ALL xenografts) was “moderate delay in tumor growth”.

In the case of `C[C@@H]1C[C@H]2[C@@H]3CCC4=CC(=O)C=C[C@]4(C)[C@@]3(F)[C@@H](O)C[C@]2(C)[C@@]1(O)C(=O)CO` [dexamethasone], the “spleen histology / cellularity” value [5] is reported as “moderate atrophy of the white pulp with preservation of the marginal zone and disorganization of the red pulp”, the “thymus histology / cellularity” value [5] is reported as “thymic atrophy with loss of the lymphoid cells from the cortex” and the “histopathology of the gut after 5 days” value ([5]; small intestine, H&E and PAS) is reported as “no histopathological changes in the gut”. It also gave an IC50 (CUTLL1 cells; Homo sapiens, CUTLL1 cells, 72 hours, dexamethasone in the presence of CompE (100 nM)) of 77 nM.

With `COc1cc([C@@H]2c3cc4c(cc3[C@@H](O[C@@H]3O[C@@H]5CO[C@@H](C)O[C@H]5[C@H](O)[C@H]3O)[C@H]3COC(=O)[C@H]23)OCO4)cc(OC)c1O` [etoposide] the “effect of γ-secretase inhibition on the apoptotic response triggered by the drug” value (from here on “effect of γ-secretase inhibition”) (CUTLL1 cells) was “did not influence the apoptotic responses”.

For `CN(Cc1cnc2nc(N)nc(N)c2n1)c1ccc(C(=O)N[C@@H](CCC(=O)O)C(=O)O)cc1` [methotrexate], the “effect of γ-secretase inhibition” value (CUTLL1 cells) was “did not influence the apoptotic responses”.

With `CC[C@]1(O)C[C@H]2CN(CCc3c([nH]c4ccccc34)[C@@](C(=O)OC)(c3cc4c(cc3OC)N(C=O)[C@H]3[C@@](O)(C(=O)OC)[C@H](OC(C)=O)[C@]5(CC)C=CCN6CC[C@]43[C@@H]65)C2)C1` [vincristine] the “effect of γ-secretase inhibition” value (CUTLL1 cells) was “did not influence the apoptotic responses”.

In the case of Z-VAD, the “effect on PARP cleavage and apoptosis triggered by CompE plus dexamethasone” value (PARP cleavage; CUTLL1, Western blot and annexin V-PI staining) is reported as “reversed the induction of PARP cleavage and apoptosis”.

B1: L-asparaginase: antineoplastic drug from Roche; inhibition of protein biosynthesis (protein, UniProt P00805 23-348, looked up)
L-asparaginase 2: LPNITILATGGTIAGGGDSATKSNYTVGKVGVENLVNAVPQLKDIANVKGEQVVNIGSQDMNDNVWLTLAKKINTDCDKTDGFVITHGTDTMEETAYFLDLTVKCDKPVVMVGAMRPSTSMSADGPFNLYNAVVTAADKASANRGVLVVMNDTVLDGRDVTKTNTTDVATFKSVNYGPLGYIHNGKIDYQRTPARKHTSDTPFDVSKLNELPKVGIVYNYANASDLPAKALVDAGYDGIVSAGVGNGNLYKSVFDTLATAAKTGTAVVRSSRVPTGATTQDAEVDDAKYGFVASGTLNPQKARVLLQLALTQTKDPQQIQQIFNQY
For B1, the “effect of γ-secretase inhibition” value (CUTLL1 cells) was “did not influence the apoptotic responses”.
